Read-outs that look alike come from different tables or passages of the source.
Columns and labels:
[1] = target: T1, VAChT in the brain (Rattus norvegicus, UniProt Q62666); experiment: Inhibitory effects of non-radioactive ligands on cerebral distribution of (−)-[^11C]-o-methylvesamicol in rats; format: in vivo; settings: 30 minutes; for local accumulation of (−)-[^11C]-o-MeVES in the brain, effect of co-administered non-radioactive ligand: 500 nmol per kg i.v.; for Radioactivity level (% ID/g) Blood / Radioactivity level (% ID/g) Brain (other than above) / Radioactivity level (% ID/g) Cerebellum / Radioactivity level (% ID/g) Cerebral cortex / Radioactivity level (% ID/g) Hippocampus / Radioactivity level (% ID/g) Medulla oblongata / Radioactivity level (% ID/g) Striate body / Radioactivity level (% ID/g) Brain (whole): tracer (−)-[^11C]-o-MeVES 20 MBq i.v. together with ligand 500 nmol per kg, mean ± S.D. n = 4-6
T1 construct: from tissue; host or cells: brain of living rats, tissue counted or sectioned after killing
T1 sequence (Q62666 1-530): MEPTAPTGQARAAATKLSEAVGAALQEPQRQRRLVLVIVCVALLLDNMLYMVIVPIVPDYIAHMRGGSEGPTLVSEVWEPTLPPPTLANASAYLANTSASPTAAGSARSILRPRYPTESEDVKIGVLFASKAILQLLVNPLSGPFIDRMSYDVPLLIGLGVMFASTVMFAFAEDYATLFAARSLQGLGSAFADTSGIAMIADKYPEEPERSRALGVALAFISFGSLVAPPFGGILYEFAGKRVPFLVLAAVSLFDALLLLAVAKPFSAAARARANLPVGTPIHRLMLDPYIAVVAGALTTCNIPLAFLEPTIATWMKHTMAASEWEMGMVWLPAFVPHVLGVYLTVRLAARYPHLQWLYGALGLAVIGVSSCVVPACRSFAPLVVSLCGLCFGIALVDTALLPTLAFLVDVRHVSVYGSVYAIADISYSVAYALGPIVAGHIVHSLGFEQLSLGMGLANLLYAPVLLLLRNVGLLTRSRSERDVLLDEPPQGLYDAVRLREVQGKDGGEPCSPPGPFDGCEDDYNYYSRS
Procedure: To the caudal vein of each rat, an injection (0.1 ml) containing 20 MBq of (−)-[^11C]-o-MeVES and 0.1 ml (equivalent to 500 nmol per kg body weight) of a DMSO solution containing each of the above-described non-radioactive ligands were administered together. Thirty minutes after the administration, the rats were killed by cervical dislocation, and blood was drawn from the heart using a syringe, after which the brain was extirpated from each rat. The extirpated brain was divided into the cerebral cortex, hippocampus, striate body, cerebellum, medulla oblongata, and other parts, and the radioactivity in each tissue was measured using a gamma counter. Each tissue was also weighed.
For control, an injection (0.1 ml) containing 20 MBq of (−)-[^11C]-o-MeVES and a ligand-free DMSO solution (0.1 ml) were administered to the caudal vein of each rat, and measurements were taken in the same manner as described above.

[2] = target: T2, VAChT (Rattus norvegicus, UniProt Q62666); experiment: biochemical
T2 sequence (Q62666 1-530): T1 sequence (Q62666 1-530)
Procedure: (§1) The affinity of (−)-o-MeVES for VAChT and sigma receptors (σ-1, σ-2) was examined by in vitro drug inhibition experiments.
(§2) First, the brain and liver were extirpated from a rat, a 0.32 M sucrose solution in an amount by weight 10 times the weight of each tissue was added, and each tissue was ground using a Teflon homogenizer. Next, the ground tissue solution was centrifuged at 1000 g for 10 minutes, and the precipitated fraction was removed. Furthermore, the supernatant was centrifuged at 55000 g for 60 minutes, and the precipitated tissue was added to, and suspended in, 50 mM Tris-HCl buffer solution/0.32 M sucrose solution (pH 7.8).
For each test compound, samples at 10 different concentrations (concentrations set at 10 levels in the range of 10^−5 M to 10^−10 M) were prepared.
For each sample, the RI (100 μl), sample (50 μl), 50 mM Tris-HCl buffer solution (pH 7.8) (100 μl), 2 μM DTG solution (50 μl) (200 nM as the final concentration), and, finally, the prepared rat cerebral membrane (500-900 μg (protein weight)/200 μl) was added to a test tube, and they were reacted at 37° C. for 60 minutes. The test tube was cooled with ice to stop the reaction, and the rat cerebral membrane was immediately adsorbed to a glass filter using a cell harvester. After the glass filter was washed with 50 mM Tris-HCl buffer solution (pH 7.8) (5 ml) three times, the rat cerebral membrane, together with the glass filter, was placed in a liquid scintillation vial, and a liquid scintillator was added, after which radioactivity was measured using a liquid scintillation counter.
(§3) Ki=IC50/(1+C/Kd)(nM) formula

[3] = target: T3, σ-2 receptor (Rattus norvegicus, UniProt Q5U3Y7); experiment: biochemical; format: binding
T3 construct: except that rat liver membranes (300-600 μg (protein weight)/200 μl) were used; from tissue; host or cells: rat liver membranes
T3 sequence (Q5U3Y7 1-176): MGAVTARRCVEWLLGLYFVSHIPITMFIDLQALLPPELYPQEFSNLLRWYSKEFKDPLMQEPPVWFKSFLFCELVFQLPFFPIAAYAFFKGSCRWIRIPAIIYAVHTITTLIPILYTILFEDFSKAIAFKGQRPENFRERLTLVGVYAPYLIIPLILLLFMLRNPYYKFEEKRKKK
Procedure: as §1, §2
3 nM [^3H]DTG ([^3H]-1,3-di-o-tolylguanidine) was used as the radioisotope (RI) for the σ-2 receptor. […] A test was performed in the same procedures as those for the test of affinity for the […] except that rat liver membranes (300-600 μg (protein weight)/200 μl) were used.
as §3

[4] = target: σ-1 receptor (Rattus norvegicus, UniProt Q9R0C9); experiment: biochemical
Sequence of σ-1 receptor (Q9R0C9 whole entry): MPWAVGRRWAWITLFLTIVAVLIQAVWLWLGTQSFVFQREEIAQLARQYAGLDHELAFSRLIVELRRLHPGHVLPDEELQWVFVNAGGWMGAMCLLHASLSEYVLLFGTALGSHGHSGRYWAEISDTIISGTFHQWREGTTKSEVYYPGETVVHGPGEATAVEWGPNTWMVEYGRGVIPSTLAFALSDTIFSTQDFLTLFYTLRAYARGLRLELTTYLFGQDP
Procedure: as §1, §2, §3

[5] = target: T4, δ-2 receptor (Rattus norvegicus, UniProt Q5U3Y7); settings: in vitro, rat brain; mean±standard deviation; Life Sciences 71 (2002) 1591-1598; read-out: Ki value, affinity for δ-2 receptor; cited from earlier work
T4 construct: as a result of in vitro experiments using the rat brain
T4 sequence (Q5U3Y7 1-176): T3 sequence (Q5U3Y7 1-176)

[6] = target: T2, VAChT; set-up: the brain and liver were extirpated from a rat; from tissue; host or cells: rat brain (cerebral membranes); settings: in vitro, rat brain; mean±standard deviation; Life Sciences 71 (2002) 1591-1598; read-out: Ki value, affinity for VAChT; cited from earlier work
[7] = target: T5, δ-1 receptor (Rattus norvegicus, UniProt Q9R0C9); settings: in vitro, rat brain; mean±standard deviation; Life Sciences 71 (2002) 1591-1598; read-out: Ki value, affinity for δ-1 receptor; cited from earlier work
T5 construct: as a result of in vitro experiments using the rat brain; host or cells: rat brain
T5 sequence (Q9R0C9 whole entry): as above

[8] = compared with (−)-o-iodovesamicol

| Structure (SMILES) | local accumulation of (−)-[^11C]-o-MeVES in the brain, effect of co-administered non-radioactive ligand [1] | Radioactivity level (% ID/g) Blood [1] [% ID/g] | Radioactivity level (% ID/g) Brain (other than above) [1] [% ID/g] | Radioactivity level (% ID/g) Cerebellum [1] [% ID/g] | Radioactivity level (% ID/g) Cerebral cortex [1] [% ID/g] | Radioactivity level (% ID/g) Hippocampus [1] [% ID/g] | Radioactivity level (% ID/g) Medulla oblongata [1] [% ID/g] | Radioactivity level (% ID/g) Striate body [1] [% ID/g] | Radioactivity level (% ID/g) Brain (whole) [1] [% ID/g] | IC50 [2] [nM] | Ki [2] [nM] | IC50 [3] [nM] | Ki [3] [nM] | also measured |
| --- | --- | --- | --- | --- | --- | --- | --- | --- | --- | --- | --- | --- | --- | --- |
| CC(C)=CCN1CCC2(C)c3cc(O)ccc3CC1C2C (single isomer, unassigned; (+)) [(+)-Pentazocine, (+)-pentazocine] | not inhibited | 0.12 ± 0.01 | 2.52 ± 0.43 | 2.07 ± 0.31 | 2.72 ± 0.40 | 2.59 ± 0.44 | 2.83 ± 0.45 | 2.39 ± 0.40 | 2.52 ± 0.40 | 830 | 315 ± 121 | – | – | – |
| COc1ccc(CCN2CCN(CCCc3ccccc3)CC2)cc1OC [SA4503, 1-(3,4-dimethoxyphenethyl)-4-(3-phenyl-propyl)piperazine] | inhibited | 0.14 ± 0.02 | 0.55 ± 0.05 | 0.52 ± 0.07 | 0.62 ± 0.08 | 0.84 ± 0.18 | 0.66 ± 0.08 | 0.61 ± 0.07 | 0.59 ± 0.07 | 120 | 50.2 ± 7.2 | 280 | 242 ± 17 | – |
| OC1CCCCC1N1CCC(c2ccccc2)CC1 (single isomer, unassigned; (-)) [(−)-Vesamicol, 2-(4-Phenylpiperidino)-cyclohexanol] | inhibited | 0.13 ± 0.01 | 0.69 ± 0.04 | 0.62 ± 0.03 | 0.71 ± 0.04 | 0.66 ± 0.05 | 0.80 ± 0.08 | 0.72 ± 0.03 | 0.70 ± 0.04 | 13 | 4.4 ± 0.6 | 420 | 346 ± 37 | – |
| Cc1ccccc1C1CCN(C2CCCCC2O)CC1 (single isomer, unassigned; (-)) [(−)-o-MeVES, (−)-2-(4-(2-methylphenyl)piperidino)cyclohexanol] | inhibited | 0.14 ± 0.02 | 0.63 ± 0.10 | 0.60 ± 0.07 | 0.70 ± 0.10 | 0.71 ± 0.08 | 0.74 ± 0.09 | 0.71 ± 0.10 | 0.68 ± 0.10 | 16 | 6.7 ± 0.4 | 320 | 266 ± 28 | IC50 [4]: 38 nM; Ki [4]: 33.7 ± 5.9 nM; melting point: 116 to 118 °C; 6-1 receptor/VAChT ratio of the Ki values [2, 8]: higher; 6-2 receptor/VAChT ratio of the Ki values [2, 8]: higher |
| OC1CCCCC1N1CCC(c2ccccc2I)CC1 (single isomer, unassigned; (-)) [(−)-o-iodovesamicol] | – | – | – | – | – | – | – | – | – | – | – | – | – | Ki [5]: 554 ± 137 nM; Ki [6]: 15 ± 2.9 nM; Ki [7]: 62.2 ± 12 nM |

Reference: US20090163461A1, “Ligand for Vesicular Acetylcholine Transporter” (priority 2005, published 2009)
